# Test results taken from a melting point compilation (Tetko et al.; mined from patent text by program, amines drawn as free bases though some values may be those of a salt).
# Residues, ends and D or L forms follow the SMILES beside them. *: point of attachment. Boc = CC(C)(C)OC(=O)*; OBn = c1ccc(CO*)cc1; Bn = c1ccc(C*)cc1
row,melting point,Compound
1,185 to 187 °C,Cc1ccc([N+](=O)[O-])c(C(=O)N[C@@H]2c3cc(OC(F)(F)F)ccc3OC(C)(C)[C@H]2O)c1
2,169 to 171 °C,Cc1cc2c(cc1S(=O)(=O)c1ccc(Cl)cc1)OC(C(=O)O)O2 (stereo unspecified)
3,173 °C,Cn1c(CNCC(C)(C)C)cc2cc(NC(=O)c3ccc(C#CC4(O)CC4)cc3)ccc21
4,254 to 257 °C,CNC(=O)c1ccc(Nc2nccc(-c3cccnc3)n2)cc1
5,184 °C,O=C(c1ccc(F)cc1)C1CCN(CCCc2nc3ccccc3c(=O)[nH]2)CC1
6,237 to 239 °C,O=[N+]([O-])c1cnc(Sc2nnc(O)n2C2CCCCC2)s1
7,191 to 194 °C,O=C(Nc1cccnc1)c1ccc([N+](=O)[O-])cc1
8,136 to 137 °C,CN(C(=O)c1cccc(S(=O)(=O)N(C)c2ccc(Br)cc2)c1)c1ccc(Br)cc1F
9,70 to 74 °C,CCCCCCCCCCCCCCCCCCOc1ccc(OCCCOc2ccc(OCc3ccccc3)cc2)c(C(=O)N(CC(=O)O)CC(=O)O)c1
10,116 to 118 °C,CCCCNc1nc(N)nc2c1ncn2C1C=CC(CO)C1 (stereo unspecified)
11,152 to 154 °C,CCOC(=O)Nc1cc(O)c(Cl)cc1F
12,127 °C,CN1CCCC(OC(=O)Nc2ccc(Br)cc2)C1 (stereo unspecified)
13,132 to 133 °C,OCc1ccc2cc(-c3nnc(CSCCOc4ccccc4)o3)ccc2c1
14,155 to 156 °C,CC(C)NC(=O)c1c(C(=O)O)ccc(Cl)c1Cl
15,137 to 138 °C,CCOc1ccccc1C1CN=C(NC(=O)OC)N1C (stereo unspecified)
16,217 to 219 °C,N#CCC(O)(Cn1cncn1)c1ccc(Cl)cc1Cl (stereo unspecified)
17,152 °C,CC(C)(C)NS(=O)(=O)c1ccc(C(=O)c2ccc(Cl)cc2)cc1F
18,199 to 205 °C,Cn1c(COc2ccc(CC3SC(=O)NC3=O)cc2)nc2ccc(Oc3ccc4cccc(NC(=O)NS(=O)(=O)c5ccccc5)c4c3)cc21 (stereo unspecified)
19,105 to 108 °C,CCOC(=O)c1ccc(N(NC(C)=O)C(=O)OC(C)(C)C)cc1
20,291 to 292 °C,Cc1[nH]c2ccccc2c1C=C1SC(=S)N(CC(=O)O)C1=O
21,155 to 157 °C,O=C(O)c1cccc(OCc2csc(-c3ccccc3)n2)c1
22,128 to 131 °C,CCCCCCCCCCCCCCCCOc1ccc(OCC(=O)Nc2ccccc2CO)cc1

row,melting point,Compound
1,152 to 154 °C,O=CC=CC(=C(c1ccc(F)cc1)c1ccc(F)cc1)n1cnnn1
2,154 to 156 °C,O=c1ccoc(CO)c1O
3,172 to 175 °C,COc1ccc(CC(=O)Nc2c(-c3cc(Cl)ccc3O)c3cc(C(F)(F)F)ccc3[nH]c2=O)cc1
4,131 to 132 °C,CC(C)NC(=O)c1nc(-c2ccccc2)c(-c2ccc(=O)n(C(C)C)n2)s1
5,123 to 125 °C,CC(C)(C)[Si](C)(C)OC1CCCc2cnc3cc(OCc4ccccc4)ccc3c21 (stereo unspecified)
6,124 °C,CC(C)(C)OC(=O)NC(C)(C)c1ccc(-c2nc(Nc3ccc(CCn4ccnc4)cc3)ncc2C#N)cc1
7,103 to 105 °C,CC(C)(C)OC(=O)N[C@H]1CCCC[C@@H]1O
8,132 to 133 °C,O=C1NC(=O)C(c2ccc(NCc3ccc(Cl)c(Cl)c3)cc2)S1 (stereo unspecified)
9,70 to 71 °C,CC(C)C(=O)Oc1ccc2c(c1)OCN(CCO[N+](=O)[O-])C2=O
10,135 to 136 °C,CCOC(=O)C1=C(C)NC(CN2C(=O)c3ccccc3C2=O)=C(C(=O)OCC)C1c1cccc(Cl)c1 (stereo unspecified)
11,75 to 77 °C,C#CCN(Cc1cc2c(=O)n(CCN(C)C)c(CN3CCCCC3)nc2cc1Cl)c1ccc(C(=O)OC(C)(C)C)cc1
12,181 to 183 °C,Cn1cc(-c2nn(-c3cccc(C(F)(F)F)c3)ccc2=O)c(-c2ccccc2)n1
13,247 to 248 °C,CCOC(=O)c1nc2c(=O)[nH]c3cc(C(F)(F)F)ccc3n2c1CBr
14,138 to 139 °C,OCCNC(=S)Nc1cccc2ccoc12
15,43 to 44 °C,CC=C(c1ccc(F)cc1)c1ccc(F)cc1
16,184 to 185 °C,CCOC(=O)C1CC2CC(CP(=O)(O)O)CCC2CN1 (stereo unspecified)
17,208 °C,CC(=O)Nc1ccc(C(=O)N2CC3CC(CN(Cc4ccccc4)C3)C2)cc1
18,146 to 148 °C,Cc1ccc2c(c1)N=C(N1CCN(C)CC1)c1cc(C)sc1O2
19,168 °C,CCOC(=O)c1c(Cl)ccc(C(=O)O)c1Cl
20,149 to 150 °C,COc1ccccc1OCC1NC(C(=O)O)CS1 (stereo unspecified)
21,145 °C,CC(C)NC(=O)CC(CC1(C(=O)N[C@H]2CCc3ccccc3N(CC(=O)O)C2=O)CCCC1)C(=O)O (stereo partly specified)
22,50 °C,CCCCCCCCCCCCCCCCSCCO

row,melting point,Compound
1,127 to 130 °C,c1ccc(-c2cn3ncsc3n2)cc1
2,145 to 146 °C,Nc1ccccc1-n1sc(-c2ccccc2)cc1=O
3,124 to 126 °C,CO/N=C(/CNC(=O)c1cnc(OCC(F)(F)F)c(-c2ccc(Cl)c(Cl)c2)c1)C(F)(F)F
4,117 to 118 °C,COc1ccc2c(=O)c(-c3ccc(OCC(O)CN4CCOCC4)cc3)coc2c1 (stereo unspecified)
5,> 250 °C,CS(=O)(=O)c1cccnc1CC1C(=O)C2(COc3cc4c(cc32)OCCO4)c2ccccc21 (stereo unspecified)
6,260 to 262 °C,COCCOc1cc(OC)c2c(=O)[nH]c(-c3ccnc(C)c3)nc2c1
7,61 to 63 °C,COC(=O)Cc1cc(NC=O)cc(OC)n1
8,101 °C,CCC(=O)c1cc(C2(c3cccc(O)c3)N=C(N)N(C)C2=O)cn1CC (stereo unspecified)
9,68.5 to 69.5 °C,CCCCCC(C(=O)c1ccccc1)C(=O)c1ccccc1
10,227 to 228 °C,Cc1ccc2c(c1)C(=O)N1CCN=C1N2N1CCOCC1
11,116 to 118 °C,CCNc1nc(SC)ncc1CNc1cc(OC)cc(OC)c1Cl
12,197 to 198 °C,C#CCSc1cc(C(=O)O)cc(S(N)(=O)=O)c1Oc1ccccc1
13,208 to 209 °C,Cc1cc(Oc2ccc(NC(=O)N3CCc4ccccc4CC3)cn2)cc(C)c1Cl
14,93 °C,CCOC(=O)CC(CCCNC(=O)c1csc(NC(=O)NCc2ccccc2)n1)c1ccccc1 (racemic)
15,230 to 237 °C,Cc1[nH]c(C(=O)NCCN2CCCCC2)c(C)c1-c1nc2ccc(C(=O)c3ccccc3)cc2[nH]1
16,100 to 103 °C,CC(C)CC(NC(=O)C(Cc1ccc(OCc2ccccc2)cc1)NC(=O)OC(C)(C)C)C(=O)OCc1ccccc1 (stereo unspecified) (Boc-Tyr(Bn)-Leu-OBn; configuration not given here)
17,66 to 68 °C,Cc1c(CO)ncnc1N1CCOCC1
18,110 to 112 °C,COc1ccc(C(=O)Nc2ccc(-c3ccc(C(C)=O)cc3C)cc2)cc1CCCN(C)C
19,130 to 132 °C,COC1(c2cncnc2SC)c2ccccc2CC1(C)C (stereo unspecified)
20,> 300 °C,CCCn1cc2c(C3C(=O)Nc4ccc(Br)cc43)nc(Cl)nc2n1 (stereo unspecified)
21,132 to 133 °C,CC(C)(CCCCCNS(=O)(=O)c1ccc(Cl)cc1)C(=O)O
22,83 to 84 °C,Cc1nc(C(C)(O)c2ccsc2)c(C)o1 (stereo unspecified)

row,Compound,melting point
1,O=C(CBr)Nc1cccc(O)c1,167 to 170 °C
2,O=[N+]([O-])C1([N+](=O)[O-])CN(C(F)(F)F)C1,70 to 71 °C
3,NNC1=Nc2ccc(I)cc2C(c2ccccc2F)=NC1,179 to 181 °C
4,O=C1CCCN1C(=O)c1ccc(O)cc1,179 to 182 °C
5,Clc1ccc(OC2CCN(CCc3c[nH]c4ccccc34)CC2)cc1,132 to 133 °C
